Experimental data taken from patent US20120282331A1, “MAMMALIAN METABOLITES OF STEROIDS” (TOKAI PHARMACEUTICALS, INC., priority 2009, published 2012).

Experiments:
[1] = Metabolic stability in pooled dog liver microsomes; type: in vitro ADME
Protocol: (§1) The depletion of the parent compound and the formation of metabolites in a time-dependent manner were explored in the presence or absence of an NADPH-generating system.
(§2) 3β-Hydroxy-17(1H-benzimidazol-1-yl)androsta-5,16-diene is incubated with pooled rat, dog, monkey and human liver microsomes at a protein concentration of 0.6 mg/mL. Incubation mixture contains either 0.1 M potassium phosphate buffer pH 7.4 or the incubation buffer. Following two minutes of pre-incubation of the incubation mixture at ˜37° C., the reaction is started by the addition of an NADPH-generating system (NADPH-GS) (1 mM NADP+, 5 mM glucose-6-phosphate, 1.0 unit/mL glucose-6-phosphate dehydrogenase) or 0.1 M phosphate buffer. At the appropriate time points (0, 15, 30, 60 and 120 minutes), reactions are stopped by the addition of appropriate stop solutions (0.1% formic acid in acetonitrile). The samples are centrifuged at approximately 10 000×g for 10 minutes at 20° C. An amount of supernatant from each sample is transferred to pre-labeled HPLC vials for analysis. Samples are analyzed by LC/MS to monitor the remaining parent compound or formation of potential metabolites. On each occasion, blank sample containing TOK-001 but without microsomes, is included.

[2] = Metabolic stability in pooled rat liver microsomes; type: in vitro ADME
Protocol: as §1, §2

[3] = Metabolic stability in pooled human liver microsomes; type: in vitro ADME
Protocol: as §1, §2

[4] = Solubility in incubation medium; type: physicochemical; settings: presence versus absence of MgCl2/EDTA
Text: However, the role of the divalent cation, MgCl2 in the activation of the CYP 450 activity is not well defined (Saito et al., 2006, Tamura et al., 1988).

[5] = Metabolic stability in pooled monkey liver microsomes; type: in vitro ADME; settings: EDTA and MgCl2; for depletion (negative = increase in concentration): absence of NADPH-GS
Protocol: as §1, §2

[6] = 10 μM, EDTA and MgCl2, up to 60 minutes
[7] = 10 μM, EDTA and MgCl2, without NADPH-GS, 120 minutes
[8] = EDTA and MgCl2, up to 120 minutes

- depletion compared to the 0 minute incubation ([1]; 10 μM, 0.1 M phosphate buffer only, with NADPH-generating system, 120 minutes): ~25%
- metabolic stability ([1]; 10 μM, 0.1 M phosphate buffer only, with NADPH-generating system, up to 60 minutes): metabolically stable
- metabolic stability [1, 6]: metabolically stable
- decrease of parent compound in negative control [1, 7]: ~21%
- metabolic stability [1, 8]: metabolically stable
- recovery at 60 min, 10 μM ([1]; both sexes, dog, pooled dog liver microsomes, 10 μM, phosphate buffer, 1 mM EDTA, 3 mM MgCl2, with NADPH-generating system, 60 minutes, read-out: recovery compared to the 0 minute): ~85%
- metabolic stability [2, 6]: metabolically stable
- depletion of parent compound ([2]; 10 μM, EDTA and MgCl2, with NADPH-GS, 120 minutes): ~21%
- change of parent compound in negative control [2, 7]: slight increase
- metabolic stability [2, 8]: metabolically stable
- recovery at 120 min, 10 μM ([2]; both sexes, rat, pooled rat liver microsomes, pH 7.4, 10 μM, 0.1 M phosphate buffer only, with NADPH-generating system, 120 minutes, read-out: recovery compared to the 0 minute incubation): ~86%
- recovery at 60 min, 10 μM ([2]; both sexes, rat, pooled rat liver microsomes, 10 μM, phosphate buffer, 1 mM EDTA, 3 mM MgCl2, with NADPH-generating system, 60 minutes, read-out: recovery compared to the 0 minute incubation): ~85%
- recovery at 120 min, 10 μM ([2]; both sexes, rat, pooled rat liver microsomes, 10 μM, phosphate buffer, 1 mM EDTA, 3 mM MgCl2, with NADPH-generating system, 120 minutes, read-out: recovery compared to the 0 minute): ~79%
- depletion of parent compound ([3]; 10 μM, EDTA and MgCl2, absence of NADPH-GS): ~7%
- depletion of parent compound ([3]; 10 μM, EDTA and MgCl2, with NADPH-generating system, over 120 minutes): ≤ 11%
- metabolized (depletion) ([3]; 0.1 M phosphate buffer only, NADPH and time-dependent): ≥ 50%
- metabolic stability [3, 8]: metabolically stable
- recovery at 120 min, 10 μM ([3]; both sexes, human, pooled human liver microsomes, 10 μM, phosphate buffer, 1 mM EDTA, 3 mM MgCl2, with NADPH-generating system, over 120 minutes): ~89%
- depletion (negative = increase in concentration) ([5]; 10 μM, 30 minutes): ~−14%
- depletion (negative = increase in concentration) ([5]; 10 μM, 120 minutes): ~−12%
- depletion of parent compound ([5]; 10 μM, with NADPH-GS, 30 minutes): ~16%
- metabolic stability ([5]; up to 120 minutes): less stable
SMILES: C[C@]12CC[C@H](O)CC1=CC[C@@H]1[C@@H]2CC[C@]2(C)C(n3cnc4ccccc43)=CC[C@@H]12 [Compound (1), 3β-Hydroxy-17(1H-benzimidazol-1-yl)androsta-5,16-diene]
- dissolution in incubation medium [4]: slightly better in the absence of MgCl2/EDTA
